One block for each compound: values may come before it. Square brackets hold non-standard residues; d marks the D form. Peptide text beside a SMILES is read from it. Phe(4-NO2) = N[C@@H](Cc1ccc([N+](=O)[O-])cc1)C(=O)O
Columns and labels:
[1] = molecular target: T1, GRF receptors ([^125 I-Tyr^10 ]hGRF(1-44)NH2 binding sites in rat adenopituitary) (Rattus norvegicus, UniProt Q02644); assay: Competitive binding assay with [^125 I-Tyr^10 ]hGRF(1-44)NH2 on anterior pituitary homogenates; conditions: for Relative affinity: ratio IC50 of hGRF(1-29)NH2 /IC50 analogue
T1 construct: from tissue; host or cells: rat anterior pituitary homogenate
T1 sequence (Q02644 23-423 isoform Q02644-2 limits assumed): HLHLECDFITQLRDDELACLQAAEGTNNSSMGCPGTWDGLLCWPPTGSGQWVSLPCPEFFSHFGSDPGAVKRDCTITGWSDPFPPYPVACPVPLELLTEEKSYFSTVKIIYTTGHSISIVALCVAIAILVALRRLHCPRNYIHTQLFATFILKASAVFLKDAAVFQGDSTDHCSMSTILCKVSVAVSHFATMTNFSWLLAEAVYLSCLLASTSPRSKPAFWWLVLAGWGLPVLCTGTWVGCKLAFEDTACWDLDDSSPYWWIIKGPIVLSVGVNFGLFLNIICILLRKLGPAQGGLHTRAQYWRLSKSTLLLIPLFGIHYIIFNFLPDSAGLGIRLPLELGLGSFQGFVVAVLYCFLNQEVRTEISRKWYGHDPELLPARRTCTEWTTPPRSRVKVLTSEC
Experimental: The binding of [^125 I-Tyr^10 ]hGRF(1-44)NH2 was performed on anterior pituitary homogenates as previously described (Gaudreau P. et al., J. Biol. Chem., 1992, 35:1864-1869). Briefly, anterior pituitaries (pit.) were dissected out, rinsed and homogenized for 8 sec with a Micro Ultrasonic Cell Disrupter™, in ice-cold 50 mM Tris-HCl buffer, pH 7.4, containing 5 mM MgCl2 and 5 mM EDTA (1 pit./0.5 ml). These homogenates were used immediately. Competition studies were performed using 35-50 pM [^125 I-Tyr^10 ]hGRF(1-44)NH2 as radio-ligand,50 μl of homogenate (70 to 75 μg of protein), and increasing concentrations of Nε-CF-[Lys^31 ]hGRF or other GRF analogues (0-1000 nM) or with 2.4 μM rGRF(1-29)NH2 for determination of non-specific binding, in a total volume of 300 μl of Tris-HCl buffer, pH 7.4, containing 5 mM EDTA, 5 mM MgCl2 and 0.42% BSA. Incubations were carried out at 23° C. for 60 min and stopped by centrifugation (12,000 g, 5 min, at 4° C.). The radioactivity content in the pellet was measured by gamma counting. The affinity of hGRF(1-29)NH2 was tested in each experiment to assess the validity of the assay and determine the relative affinity of the analogues. […] The Hill values indicate that all these peptides bind to the high and low affinity GRF binding sites found in the anterior pituitary.

[2] = molecular target: T2, GRF receptor (adenylate cyclase activity in rat adenopituitary) (Rattus norvegicus, UniProt Q02644); assay: Adenylate cyclase assay on anterior pituitary homogenates (cAMP by HPLC); assay type: biochemical; conditions: Table 12; 50% of maximal cAMP accumulation induced by 1 μM hGRF(1-29)NH2; mean±SD of 2 or mean±SE of 3 to 6 experiments, 10 for hGRF(1-29)NH2
T2 construct: from tissue; host or cells: rat anterior pituitary homogenate
T2 sequence (Q02644 23-423 isoform Q02644-2 limits assumed): T1 sequence (Q02644 23-423 isoform Q02644-2 limits assumed)
Experimental: The adenylate cyclase activity Nε-CF-[Lys^31 ]hGRF was performed on anterior pituitary homogenates as previously described (Lefrangois L. and Gaudreau P., J. Chromatogr., 1993, 619:116-120). Briefly, anterior pituitaries (pit.) were dissected out, rinsed and homogenized for 8 sec with a Micro Ultrasonic Cell Disrupter™, in ice-cold 20 mM Tris-HCl buffer (pH 7.5) containing 2 mM MgCl2 and 250 mM sucrose (1 pit./0.5 ml).
Samples of anterior pituitary homogenates (30-40 μg protein) were incubated in 1.5 ml Eppendorf™ tubes with 30 mM Tris-HCl, 5 mM MgCl2, 0.5 mM EGTA, containing 0.5 mM ATP, 1 mM IBMX, 10 μM GTP and an ATP regenerating system consisting of 2 mM creatine phosphate, 0.1 mg/ml creatine kinase and, 0.1 mg/ml myokinase in a final volume of 120 μl. Incubations were initiated by adding 20 μl of the homogenate to the reaction mixture which had previously been equilibrated at 37° C. for 2 min. The reactions were carried out for 8 min at 37° C. and stopped by heating the samples in boiling water for 4 min. Samples were centrifuged (12000 g, 5 min, 4° C.) and supernatants were filtered through 0.45 μm Millex HV4 ™ filters and transferred to autosampler vials for HPLC quantification of cAMP.

[3] = Table 11, mean±SD of 2 or mean±SE of 3 experiments for analogues, mean±SE of 11 for hGRF(1-29)NH2

IC50 [1, 3]: 31.6 ± 11.7 nM | IC50 [2]: 136 ± 50 nM
SMILES: CC[C@H](C)[C@H](NC(=O)[C@H](C)NC(=O)[C@H](CC(=O)O)NC(=O)[C@@H](C)NC(=O)[C@@H](N)Cc1ccc(O)cc1)C(=O)N[C@@H](Cc1ccccc1)C(=O)N[C@H](C(=O)N[C@@H](CC(N)=O)C(=O)N[C@@H](CO)C(=O)N[C@H](Cc1ccc(O)cc1)C(=O)N[C@@H](CCCNC(=N)N)C(=O)N[C@@H](CCCCN)C(=O)N[C@H](C(=O)N[C@@H](CC(C)C)C(=O)N[C@H](C)C(=O)N[C@@H](CCC(N)=O)C(=O)N[C@@H](CC(C)C)C(=O)N[C@@H](CO)C(=O)N[C@@H](C)C(=O)N[C@@H](CCCNC(=N)N)C(=O)N[C@H](CCCCN)C(=O)N[C@@H](CC(C)C)C(=O)N[C@@H](CC(C)C)C(=O)N[C@@H](CCC(N)=O)C(=O)N[C@@H](CC(=O)O)C(=O)N[C@H](C(=O)N[C@@H](CCSC)C(=O)N[C@@H](CO)C(=O)N[C@@H](CCCNC(=N)N)C(N)=O)[C@@H](C)CC)C(C)C)[C@@H](C)O [D-Ala^2, D-Tyr^10, D-Ala^15, D-Lys^21] (H-Y[dA]DAIFTNS[dY]RKVL[dA]QLSAR[dK]LLQDIMSR-NH2)

IC50 [1, 3]: 13.1 ± 0.9 nM | IC50 [2]: 176 ± 87 nM
SMILES: CC[C@H](C)[C@H](NC(=O)[C@H](C)NC(=O)[C@H](CC(=O)O)NC(=O)[C@@H](C)NC(=O)[C@@H](N)Cc1ccc(O)cc1)C(=O)N[C@@H](Cc1ccccc1)C(=O)N[C@H](C(=O)N[C@@H](CC(N)=O)C(=O)N[C@@H](CO)C(=O)N[C@H](Cc1ccc(O)cc1)C(=O)N[C@@H](CCCNC(=N)N)C(=O)N[C@@H](CCCCN)C(=O)N[C@H](C(=O)N[C@@H](CC(C)C)C(=O)N[C@H](C)C(=O)N[C@@H](CCC(N)=O)C(=O)N[C@@H](CC(C)C)C(=O)N[C@@H](CO)C(=O)N[C@@H](C)C(=O)N[C@@H](CCCNC(=N)N)C(=O)N[C@@H](CCCCN)C(=O)N[C@@H](CC(C)C)C(=O)N[C@@H](CC(C)C)C(=O)N[C@@H](CCC(N)=O)C(=O)N[C@@H](CC(=O)O)C(=O)N[C@H](C(=O)N[C@@H](CCSC)C(=O)N[C@@H](CO)C(=O)N[C@@H](CCCNC(=N)N)C(N)=O)[C@@H](C)CC)C(C)C)[C@@H](C)O [D-Ala^2, D-Tyr^10, D-Ala^15] (H-Y[dA]DAIFTNS[dY]RKVL[dA]QLSARKLLQDIMSR-NH2)

affinity for adenopituitary GRF receptors (in words) [1]: nanomolar affinity | Hill coef. ([1]; Table 4): 0.63 ± 0.07 | IC50 ([1]; Table 4, mean±SD of 2 experiments in triplicate for analogues, mean±SE of 29 experiments for hGRF(1-29)NH2): 14 ± 4 nM | Relative affinity ([1]; Table 4): 19 ± 5%
SMILES: CC[C@H](C)[C@H](NC(=O)[C@H](C)NC(=O)[C@H](CC(=O)O)NC(=O)[C@H](C)NC(=O)[C@H](Cc1ccc(O)cc1)NC(=S)Nc1ccc2c(c1)C(=O)OC21c2ccc(O)cc2Oc2cc(O)ccc21)C(=O)N[C@@H](Cc1ccccc1)C(=O)N[C@H](C(=O)N[C@@H](CC(N)=O)C(=O)N[C@@H](CO)C(=O)N[C@@H](Cc1ccc(O)cc1)C(=O)N[C@@H](CCCNC(=N)N)C(=O)N[C@@H](CCCCN)C(=O)N[C@H](C(=O)N[C@@H](CC(C)C)C(=O)NCC(=O)N[C@@H](CCC(N)=O)C(=O)N[C@@H](CC(C)C)C(=O)N[C@@H](CO)C(=O)N[C@@H](C)C(=O)N[C@@H](CCCNC(=N)N)C(=O)N[C@@H](CCCCN)C(=O)N[C@@H](CC(C)C)C(=O)N[C@@H](CC(C)C)C(=O)N[C@@H](CCC(N)=O)C(=O)N[C@@H](CC(=O)O)C(=O)N[C@H](C(=O)N[C@@H](CCSC)C(=O)N[C@@H](CO)C(=O)N[C@@H](CCCNC(=N)N)C(=O)N[C@@H](CCC(N)=O)C(=O)N[C@@H](CCC(N)=O)C(=O)NCC(=O)N[C@@H](CCC(=O)O)C(=O)N[C@@H](CO)C(=O)N[C@@H](CC(N)=O)C(=O)N[C@@H](CCC(N)=O)C(=O)N[C@@H](CCC(=O)O)C(=O)N[C@@H](CCCNC(=N)N)C(=O)NCC(=O)N[C@@H](C)C(=O)N[C@@H](CCCNC(=N)N)C(=O)N[C@@H](C)C(=O)N[C@@H](CCCNC(=N)N)C(=O)N[C@@H](CC(C)C)C(N)=O)[C@@H](C)CC)C(C)C)[C@@H](C)O [[Nα-fluorescein-5-thiocarbamyl]hGRF(1-44)NH2]

Hill coef. ([1]; Table 7): 0.63 ± 0.09 | IC50 ([1]; Table 7, mean±SD of 2 or mean±SE of 3-6 experiments for analogues, mean±SE of 29 for hGRF(1-29)NH2): 18.3 ± 5.9 nM | Relative affinity ([1]; Table 7): 14 ± 5%
SMILES: CC[C@H](C)[C@H](NC(=O)[C@H](C)NC(=O)[C@H](CC(=O)O)NC(=O)[C@H](C)NC(=O)[C@H](Cc1ccc(O)cc1)NC(=O)[C@@H](N)Cc1ccc([N+](=O)[O-])cc1)C(=O)N[C@@H](Cc1ccccc1)C(=O)N[C@H](C(=O)N[C@@H](CC(N)=O)C(=O)N[C@@H](CO)C(=O)N[C@@H](Cc1ccc(O)cc1)C(=O)N[C@@H](CCCNC(=N)N)C(=O)N[C@@H](CCCCN)C(=O)N[C@H](C(=O)N[C@@H](CC(C)C)C(=O)NCC(=O)N[C@@H](CCC(N)=O)C(=O)N[C@@H](CC(C)C)C(=O)N[C@@H](CO)C(=O)N[C@@H](C)C(=O)N[C@@H](CCCNC(=N)N)C(=O)N[C@@H](CCCCN)C(=O)N[C@@H](CC(C)C)C(=O)N[C@@H](CC(C)C)C(=O)N[C@@H](CCC(N)=O)C(=O)N[C@@H](CC(=O)O)C(=O)N[C@H](C(=O)N[C@@H](CCSC)C(=O)N[C@@H](CO)C(=O)N[C@@H](CCCNC(=N)N)C(N)=O)[C@@H](C)CC)C(C)C)[C@@H](C)O [npa0]

IC50 (in words) [1]: low nanomolar range
SMILES: CC[C@H](C)[C@H](NC(=O)[C@H](C)NC(=O)[C@H](CC(=O)O)NC(=O)[C@H](C)NC(=O)[C@@H](N)Cc1ccc(O)cc1)C(=O)N[C@@H](Cc1ccccc1)C(=O)N[C@H](C(=O)N[C@@H](CC(N)=O)C(=O)N[C@@H](Cc1ccc([N+](=O)[O-])cc1)C(=O)N[C@@H](Cc1ccc(O)cc1)C(=O)N[C@@H](CCCNC(=N)N)C(=O)N[C@@H](CCCCN)C(=O)N[C@H](C(=O)N[C@@H](CC(C)C)C(=O)NCC(=O)N[C@@H](CCC(N)=O)C(=O)N[C@@H](CC(C)C)C(=O)N[C@@H](CO)C(=O)N[C@@H](C)C(=O)N[C@@H](CCCNC(=N)N)C(=O)N[C@@H](CCCCN)C(=O)N[C@@H](CC(C)C)C(=O)N[C@@H](CC(C)C)C(=O)N[C@@H](CCC(N)=O)C(=O)N[C@@H](CC(=O)O)C(=O)N[C@H](C(=O)N[C@@H](CCSC)C(=O)N[C@@H](CO)C(=O)N[C@@H](CCCNC(=N)N)C(N)=O)[C@@H](C)CC)C(C)C)[C@@H](C)O [npa^9, [4'-nitro-phenylanalylalanine^9]hGRF(1-29)NH2] (H-YADAIFTN[Phe(4-NO2)]YRKVLGQLSARKLLQDIMSR-NH2)

IC50 (in words) [1]: low nanomolar range
SMILES: CC[C@H](C)[C@H](NC(=O)[C@H](C)NC(=O)[C@H](CC(=O)O)NC(=O)[C@H](C)NC(=O)[C@@H](N)Cc1ccc(O)cc1)C(=O)N[C@@H](Cc1ccccc1)C(=O)N[C@H](C(=O)N[C@@H](CC(N)=O)C(=O)N[C@@H](CO)C(=O)N[C@@H](Cc1ccc([N+](=O)[O-])cc1)C(=O)N[C@@H](CCCNC(=N)N)C(=O)N[C@@H](CCCCN)C(=O)N[C@H](C(=O)N[C@@H](CC(C)C)C(=O)NCC(=O)N[C@@H](CCC(N)=O)C(=O)N[C@@H](CC(C)C)C(=O)N[C@@H](CO)C(=O)N[C@@H](C)C(=O)N[C@@H](CCCNC(=N)N)C(=O)N[C@@H](CCCCN)C(=O)N[C@@H](CC(C)C)C(=O)N[C@@H](CC(C)C)C(=O)N[C@@H](CCC(N)=O)C(=O)N[C@@H](CC(=O)O)C(=O)N[C@H](C(=O)N[C@@H](CCSC)C(=O)N[C@@H](CO)C(=O)N[C@@H](CCCNC(=N)N)C(N)=O)[C@@H](C)CC)C(C)C)[C@@H](C)O [npa^10, [4'-nitro-phenylalanine^10]hGRF(1-29)NH2] (H-YADAIFTNS[Phe(4-NO2)]RKVLGQLSARKLLQDIMSR-NH2)

From patent US5854216A, “Marker for growth hormone-releasing factor receptors” (Universite de Montreal, priority 1996, dated 1998)
